# ChEMBL document CHEMBL2021885, “Triphenylbutanamines: kinesin spindle protein inhibitors with in vivo antitumor activity” (J Med Chem, 2012)
# Experiments:
# K562 = experiment: cells; settings: Homo sapiens, K562, 72 h
# Description: Antiproliferative activity against human K562 cells after 72 hrs by Alamar blue assay
# [1] = Half life at pH 1.0 assessed as compound hydrolysis; format: physicochemical; settings: buffer
# [2] = molecular target: T1, Kinesin-like protein KIF11 (Homo sapiens, UniProt P52732)
# T1 sequence (P52732 whole entry): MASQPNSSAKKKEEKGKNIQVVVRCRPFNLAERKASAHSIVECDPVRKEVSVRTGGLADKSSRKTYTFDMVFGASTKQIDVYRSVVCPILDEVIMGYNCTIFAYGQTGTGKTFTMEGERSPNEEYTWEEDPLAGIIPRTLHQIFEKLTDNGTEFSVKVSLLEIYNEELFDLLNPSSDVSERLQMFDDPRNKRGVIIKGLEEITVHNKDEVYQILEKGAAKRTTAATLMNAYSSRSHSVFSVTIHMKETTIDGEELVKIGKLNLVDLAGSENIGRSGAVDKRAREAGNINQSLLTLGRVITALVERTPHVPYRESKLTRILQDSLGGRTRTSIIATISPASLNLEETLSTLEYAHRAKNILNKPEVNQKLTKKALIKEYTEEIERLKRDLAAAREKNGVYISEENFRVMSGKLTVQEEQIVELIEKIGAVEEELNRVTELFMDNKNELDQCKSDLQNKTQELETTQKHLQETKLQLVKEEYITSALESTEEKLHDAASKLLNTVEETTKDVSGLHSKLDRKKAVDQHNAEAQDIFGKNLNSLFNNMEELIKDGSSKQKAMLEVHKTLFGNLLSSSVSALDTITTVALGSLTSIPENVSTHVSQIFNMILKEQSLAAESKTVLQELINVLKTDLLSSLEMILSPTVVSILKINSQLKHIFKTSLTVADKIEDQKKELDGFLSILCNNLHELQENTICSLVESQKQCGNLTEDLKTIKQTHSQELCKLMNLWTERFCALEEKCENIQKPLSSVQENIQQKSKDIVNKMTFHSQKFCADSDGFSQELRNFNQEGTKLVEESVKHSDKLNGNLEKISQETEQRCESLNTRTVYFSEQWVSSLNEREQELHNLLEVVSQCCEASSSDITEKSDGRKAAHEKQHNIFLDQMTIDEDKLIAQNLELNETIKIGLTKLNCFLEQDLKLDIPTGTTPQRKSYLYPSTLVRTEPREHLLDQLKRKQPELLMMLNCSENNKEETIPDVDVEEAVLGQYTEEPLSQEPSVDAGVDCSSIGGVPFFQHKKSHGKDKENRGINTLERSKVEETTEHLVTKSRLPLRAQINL
# [3] = Distribution coefficient, log D of the compound at pH 7.4; format: physicochemical; settings: octanol/water
# [4] = Antiproliferative activity against human hTERT-HME1 cells after 72 hrs by Alamar blue assay; format: cell-based
# Liver microsomes = experiment: Intrinsic clearance in human liver microsomes assessed as per mg of protein; format: ADME, Microsome
# [5] = Turbidimetric solubility of the compound at pH 7.4; format: physicochemical; settings: buffer
# [6] = Turbidimetric solubility of the compound at pH 2; format: physicochemical; settings: buffer
# [7] = Intrinsic clearance in human hepatocytes assessed as per million cells; format: ADME, cell-based, Hepatocyte
# [8] = Lipophilicity, Log P of the compound; format: physicochemical; settings: octanol/water
# [9] = Dissociation constant, pKa of the compound; format: physicochemical
# [10] = Turbidimetric solubility of the compound at pH 6; format: physicochemical; settings: buffer
# HCT-116 = experiment: Antiproliferative activity against human HCT116 cells after 72 hrs by Alamar blue assay; format: functional; settings: HCT-116, 72 h
# NCI-H1299 = experiment: Antiproliferative activity against human NCI-H1299 cells after 72 hrs by Alamar blue assay; format: functional; settings: NCI-H1299, 72 h
# BXPC-3 = experiment: Antiproliferative activity against human BxPC3 cells after 72 hrs by Alamar blue assay; format: functional; settings: BXPC-3, 72 h
# [11] = Apparent permeability of the compound by PAMPA method; format: ADME
# [12] = molecular target: T1, Kinesin-like protein KIF11; remark: listed apart in the source
smiles,measurement,setting,value
NCCSC(c1ccccc1)(c1ccccc1)c1ccc(CN)cc1,GI50,K562,2590 nM
NCCNC(c1ccccc1)(c1ccccc1)c1ccccc1,t1/2,[1],7 h
same,Ki,[2],2660 nM
NCCSC(c1ccccc1)(c1ccccc1)c1cccc(OC(F)(F)F)c1,GI50,K562,1520 nM
CNC(=O)c1cccc(C(SCCN)(c2ccccc2)c2ccccc2)c1,GI50,K562,982 nM
Cc1cccc(C(CCCN)(c2ccccc2)c2ccccc2)c1,logD,[3],2.33
same,GI50 at 72 h,[4],150 nM
same,CLH,Liver microsomes,Stable
same,solubility kinetic,[5],> 100 µM
same,solubility kinetic,[6],> 100 µM
same,CLH,[7],3.93 µL/min
same,logP,[8],4.69
same,pKa,[9],10.1
same,solubility kinetic,[10],> 100 µM
N#Cc1cccc(C(SCCN)(c2ccccc2)c2ccccc2)c1,Ki,[2],451 nM
Cc1ccc(C(CC[C@@H](N)C(=O)O)(c2ccccc2)c2ccccc2)cc1,GI50,HCT-116,40 nM
same,GI50 at 72 h,[4],27 nM
same,GI50,K562,82 nM
same,GI50,NCI-H1299,111 nM
same,GI50,BXPC-3,85 nM
NC(CCC(c1ccccc1)(c1ccccc1)c1ccccc1)C(=O)O (racemic),GI50,HCT-116,828 nM
same,GI50 at 72 h,[4],494 nM
same,GI50,K562,865 nM
same,GI50,NCI-H1299,2820 nM
same,GI50,BXPC-3,1490 nM
N[C@@H](CSC(c1ccccc1)(c1ccccc1)c1cccc(Cl)c1)C(=O)O,GI50,K562,2400 nM
same,Ki,[2],89.9 nM
COc1cccc(C(SCCN)(c2ccccc2)c2ccccc2)c1,Ki,[2],150 nM
CC(=O)c1cccc(C(SCCN)(c2ccccc2)c2ccccc2)c1,GI50,K562,706 nM
NC(=O)c1cccc(C(SC[C@H](N)C(=O)O)(c2ccccc2)c2ccccc2)c1,GI50,K562,16700 nM
same,Papp,[11],impermeable
N[C@H](CCC(c1ccccc1)(c1ccccc1)c1ccccc1)C(=O)O,GI50,HCT-116,472 nM
same,GI50 at 72 h,[4],321 nM
same,GI50,K562,776 nM
same,GI50,NCI-H1299,1320 nM
same,GI50,BXPC-3,1120 nM
CCCc1cccc(C(SCCN)(c2ccccc2)c2ccccc2)c1,solubility kinetic,physchem,3.75 µM
same,GI50,K562,1760 nM
CN(C)C(=O)c1cccc(C(SCCN)(c2ccccc2)c2ccccc2)c1,GI50,K562,2830 nM
same,Ki,[2],6060 nM
CNC(=O)c1ccc(C(SCCN)(c2ccccc2)c2ccccc2)cc1,GI50,K562,3950 nM
Cc1cccc(C(SCCN)(c2ccccc2)c2ccccc2)c1,GI50,K562,698 nM
Cc1ccc(C(CC[C@H](N)C(=O)O)(c2ccccc2)c2ccccc2)cc1,GI50,HCT-116,115 nM
same,GI50 at 72 h,[4],49 nM
same,GI50,K562,149 nM
same,GI50,NCI-H1299,305 nM
same,GI50,BXPC-3,268 nM
CC(=O)c1ccc(C(SC[C@H](N)C(=O)O)(c2ccccc2)c2ccccc2)cc1,GI50,K562,4270 nM
same,Ki,[2],272 nM
N[C@@H](CSC(c1ccccc1)(c1ccccc1)c1ccccc1)C(=O)O [S-TRITYL-L-CYSTEINE],GI50 at 72 h,[4],361 nM
NCCSC(c1ccccc1)(c1ccccc1)c1ccccc1,GI50,HCT-116,1210 nM
same,GI50 at 72 h,[4],1610 nM
same,Ki,[12],152 nM
same,GI50,K562,2290 nM
same,GI50,NCI-H1299,2300 nM
same,GI50,BXPC-3,2460 nM
same,Ki,[2],246 nM
CC(=O)NCc1ccc(C(SCCN)(c2ccccc2)c2ccccc2)cc1,GI50,K562,2900 nM
NCCCC(c1ccccc1)(c1ccccc1)c1cccc(Cl)c1,GI50,K562,596 nM
CSc1cccc(C(SCCN)(c2ccccc2)c2ccccc2)c1,GI50,K562,1470 nM
same,Ki,[2],520 nM
CN(C)C(=O)c1ccc(C(SCCN)(c2ccccc2)c2ccccc2)cc1,GI50,K562,2910 nM
CS(=O)(=O)c1cccc(C(SCCN)(c2ccccc2)c2ccccc2)c1,GI50,K562,2560 nM
NCCSC(c1ccccc1)(c1ccccc1)c1cccc(F)c1,Ki,[2],377 nM
